Experimental data reported in ChEMBL document CHEMBL5726842, “Bicyclic azaheterocyclobenzylamines as PI3K inhibitors” (2019).

Biological target: T1, Phosphatidylinositol 4,5-bisphosphate 3-kinase catalytic subunit delta isoform (Homo sapiens, UniProt O00329)
T1 sequence (O00329 whole entry): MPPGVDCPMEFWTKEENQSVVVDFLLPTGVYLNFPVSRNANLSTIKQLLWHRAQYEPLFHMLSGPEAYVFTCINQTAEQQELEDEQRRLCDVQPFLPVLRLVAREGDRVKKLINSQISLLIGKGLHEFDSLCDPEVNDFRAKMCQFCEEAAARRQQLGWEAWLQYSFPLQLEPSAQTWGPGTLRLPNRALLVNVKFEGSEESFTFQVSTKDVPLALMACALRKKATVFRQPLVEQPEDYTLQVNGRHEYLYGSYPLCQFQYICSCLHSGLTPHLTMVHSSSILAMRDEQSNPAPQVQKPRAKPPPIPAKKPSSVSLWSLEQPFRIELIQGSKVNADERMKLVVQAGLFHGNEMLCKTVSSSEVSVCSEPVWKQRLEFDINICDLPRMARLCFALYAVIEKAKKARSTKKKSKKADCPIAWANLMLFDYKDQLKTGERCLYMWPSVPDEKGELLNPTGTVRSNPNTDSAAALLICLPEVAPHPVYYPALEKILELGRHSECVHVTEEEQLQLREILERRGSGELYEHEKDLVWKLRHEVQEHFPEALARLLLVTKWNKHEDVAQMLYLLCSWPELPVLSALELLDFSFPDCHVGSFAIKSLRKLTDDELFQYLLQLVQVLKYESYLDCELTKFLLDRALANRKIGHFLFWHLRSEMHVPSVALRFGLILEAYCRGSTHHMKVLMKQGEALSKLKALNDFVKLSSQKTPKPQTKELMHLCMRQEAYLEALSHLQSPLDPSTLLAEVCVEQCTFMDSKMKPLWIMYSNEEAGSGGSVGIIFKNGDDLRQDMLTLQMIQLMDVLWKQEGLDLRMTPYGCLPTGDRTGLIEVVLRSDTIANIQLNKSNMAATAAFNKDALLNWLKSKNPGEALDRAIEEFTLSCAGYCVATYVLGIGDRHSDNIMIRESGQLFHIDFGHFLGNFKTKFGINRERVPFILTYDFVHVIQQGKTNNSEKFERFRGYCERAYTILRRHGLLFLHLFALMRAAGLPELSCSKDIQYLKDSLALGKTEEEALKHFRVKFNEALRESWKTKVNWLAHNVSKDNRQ
Test: PI3Kdelta Scintillation Proximity Assay: [γ-33P]ATP (10mCi/mL) was purchased from Perkin-Elmer (Waltham, Mass.). Lipid kinase substrate, D-myo-Phosphatidylinositol 4,5-bisphosphate (PtdIns(4,5)P2)D (+)-sn-1,2-di-O-octanoylglyceryl, 3-O-phospho linked (PIP2), CAS 204858-53-7, was purchased from Echelon Biosciences (Salt Lake City, Utah). PI3Kδ (p110δ/p85α) was purchased from Millipore (Bedford, Mass.). ATP, MgCl2, DTT, EDTA, MOPS and CHAPS were purchased from Sigma-Aldrich (St. Louis, Mo.). Wheat Germ Agglutinin (WGA) YSi SPA Scintillation Beads was purchased from GE healthcare life sciences (Piscataway, N.J.).The kinase reaction was conducted in polystyrene 384-well matrix white plate from Thermo Fisher Scientific in a final volume of 25 μL. Inhibitors were first diluted serially in DMSO and added to the plate wells before the addition of other reaction components. The final concentration of DMSO in the assay was 0.5%. The PI3K assays were carried out at room temperature in 20 mM MOPS, pH 6.7, 10 mM MgCl2, 5 mM DTT and CHAPS 0.03%.Reactions were initiated by the addition of ATP, the final reaction mixture consisted of 20 μM PIP2, 20 μM ATP, 0.2 μCi [γ-33P] ATP, 4 nM PI3Kδ. Reactions were incubated for 210 min and terminated by the addition of 40 μL SPA beads suspended in quench buffer: 150 mM potassium phosphate pH 8.0, 20% glycerol. 25 mM EDTA, 400 μM ATP. […]

SMILES: Cc1nn(C(C)c2cc(Cl)c(F)c3c2O[C@H](C)CN(C2CC(C(=O)O)C2)C3)c2ncnc(N)c12 (stereo partly specified)
- IC50: < 100 nM
